≈ marks a conversion by molar mass, not a printed value. One block for each compound: values may come before it.
Tests used:
Assay in all cases: ≥ marks a high value that may be exact or a test limit, other limits are often not marked, values filed in µg/mL are converted to µM
[1] = test system: Candida albicans FRR 5580
[2] = test system: Escherichia coli ATCC 25922
[3] = test system: Pseudomonas aeruginosa ATCC 9027
[4] = test system: Staphylococcus aureus ATCC 25923
Staphylococcus aureus = test system: Staphylococcus aureus
Escherichia coli K-12 = test system: Escherichia coli K-12
Leuconostoc lactis = test system: Leuconostoc lactis
[5] = test system: Staphylococcus aureus USA 300
Streptococcus uberis = test system: Streptococcus uberis
[6] = test system: Acinetobacter baumannii ATCC 17978
[7] = test system: Bacillus megaterium ATCC 10778
[8] = test system: Bacillus subtilis ATCC 6633
Candida albicans MDM8 = test system: Candida albicans MDM8
[9] = test system: Candida tropicalis IOC 4560
[10] = test system: Enterobacter cloacae beta-12
[11] = test system: Escherichia coli NCTC 12923
Escherichia coli SBS 363 = test system: Escherichia coli SBS 363
[12] = test system: Klebsiella pneumoniae NCTC 13368
Micrococcus luteus A270 = test system: Micrococcus luteus A270
[13] = test system: Pseudomonas aeruginosa NCIB 10421
[14] = test system: Pseudomonas aeruginosa NCTC 13437
[15] = test system: Pseudomonas aeruginosa PAO1
[16] = test system: Serratia marcescens ATCC 4112
[17] = test system: Staphylococcus aureus ATCC 29213
[18] = test system: Staphylococcus aureus ATCC 9144
[19] = test system: Escherichia coli ATCC 11229
[20] = test system: Staphylococcus aureus ATCC 33591
Escherichia coli UB1005 = test system: Escherichia coli UB1005
[21] = test system: Lacticaseibacillus rhamnosus 1.0385
[22] = test system: Lacticaseibacillus rhamnosus 1.0386
[23] = test system: Lacticaseibacillus rhamnosus 1.0911
[24] = test system: Lacticaseibacillus rhamnosus 1.0925
[25] = test system: Lacticaseibacillus rhamnosus 7469
[26] = test system: Lactiplantibacillus plantarum 8014
[27] = test system: Pseudomonas aeruginosa ATCC 27853
[28] = test system: Staphylococcus aureus ATCC 43300
[29] = test system: Staphylococcus epidermidis ATCC 12228
Escherichia coli W3110 = test system: Escherichia coli W3110
[30] = test system: Klebsiella pneumoniae ATCC BAA-1705
Escherichia coli = test system: Escherichia coli
[31] = test system: Salmonella enterica subsp. enterica serovar Enteritidis
Salmonella sp. = test system: Salmonella sp.
Yersinia enterocolitica = test system: Yersinia enterocolitica

SMILES: CC(C)C[C@H](NC(=O)CN)C(=O)N[C@@H](C)C(=O)N[C@@H](CC(=O)O)C(=O)N[C@@H](Cc1ccccc1)C(=O)N[C@@H](CC(C)C)C(=O)N[C@@H](CC(N)=O)C(=O)N[C@@H](CCCCN)C(=O)N[C@@H](C)C(=O)N[C@H](C(=O)NCC(=O)N[C@@H](CCCCN)C(=O)N[C@H](C(=O)N[C@H](C(=O)N[C@@H](CC(=O)O)C(=O)N[C@@H](Cc1ccccc1)C(=O)N[C@H](C(=O)N[C@@H](CCCCN)C(=O)N[C@@H](CO)C(N)=O)C(C)C)C(C)C)C(C)C)C(C)C [GLADFLNKAVGKVVDFVKS]
MIC (Escherichia coli K-12): ≥ 100 µM
MIC (Leuconostoc lactis): 25 µM (≈ 50.2 µg/mL)
MIC [5]: ≥ 100 µM
MIC (Streptococcus uberis): ≥ 50 µM

SMILES: CC[C@H](C)[C@H](NC(=O)[C@H](CCCCN)NC(=O)[C@H](CCC(=O)O)NC(=O)[C@H](Cc1c[nH]c2ccccc12)NC(=O)[C@H](Cc1ccccc1)NC(=O)[C@H](CCCCN)NC(=O)CNC(=O)[C@H](CC(C)C)NC(=O)[C@H](C)N)C(=O)N[C@@H](CCCCN)C(=O)N[C@@H](CO)C(=O)N[C@@H](CC(C)C)C(=O)N[C@@H](Cc1ccccc1)C(N)=O [ALGKFWEKIKSLF]
MIC [6]: 2.55 µM (≈ 4 µg/mL)
MIC [7]: 0.78 µM (≈ 1.22 µg/mL)
MIC [8]: 0.78 µM (≈ 1.22 µg/mL)
MIC (Candida albicans MDM8): 3.13 µM (≈ 4.9 µg/mL)
MIC [9]: 0.78 µM (≈ 1.22 µg/mL)
MIC [10]: 6.25 µM (≈ 9.79 µg/mL)
MIC [11]: 5.11 µM (≈ 8 µg/mL)
MIC (Escherichia coli SBS 363): 1.56 µM (≈ 2.44 µg/mL)
MIC [12]: 10.2 µM (≈ 16 µg/mL)
MIC (Micrococcus luteus A270): 0.78 µM (≈ 1.22 µg/mL)
MIC [13]: 12.5 µM (≈ 19.6 µg/mL)
MIC [14]: ≥ 40.8 µM
MIC [15]: > 81.7 µM
MIC [16]: 0.36 µM (≈ 0.564 µg/mL)
MIC [17]: 3.13 µM (≈ 4.9 µg/mL)
MIC [18]: 2.55 µM (≈ 4 µg/mL)
MIC [5]: 10.2 µM (≈ 16 µg/mL)

SMILES: NC(=O)[C@H](CCCN=C(N)N)NC(=O)[C@H](CCCN=C(N)N)NC(=O)[C@H](Cc1c[nH]c2ccccc12)NC(=O)[C@H](CS)NC(=O)[C@H](Cc1c[nH]c2ccccc12)NC(=O)[C@H](Cc1c[nH]c2ccccc12)NC(=O)[C@H](Cc1c[nH]c2ccccc12)NC(=O)[C@H](CS)NC(=O)[C@H](Cc1c[nH]c2ccccc12)NC(=O)[C@H](CCCN=C(N)N)NC(=O)[C@@H](N)CCCN=C(N)N [RRWCWWWCWRR]
MIC [2]: > 64 µM
MIC (Escherichia coli UB1005): 16 µM (≈ 28.5 µg/mL)
MIC [21]: ≥ 64 µM
MIC [22]: 16 µM (≈ 28.5 µg/mL)
MIC [23]: ≥ 64 µM
MIC [24]: ≥ 64 µM
MIC [25]: ≥ 64 µM
MIC [26]: 8 µM (≈ 14.2 µg/mL)
MIC [27]: 8 µM (≈ 14.2 µg/mL)
MIC [17]: 8 µM (≈ 14.2 µg/mL)
MIC [28]: 4 µM (≈ 7.12 µg/mL)
MIC [29]: 8 µM (≈ 14.2 µg/mL)

SMILES: NCCCC[C@H](NC(=O)[C@H](CCCCN)NC(=O)[C@H](Cc1ccccc1)NC(=O)[C@H](CCCCN)NC(=O)[C@H](CCCN=C(N)N)NC(=O)[C@H](CCCN=C(N)N)NC(=O)[C@H](Cc1ccccc1)NC(=O)[C@H](CCCCN)NC(=O)[C@@H](N)CCCN=C(N)N)C(N)=O [RKFRRKFKK]
MIC [2]: > 50 µM
MIC (Escherichia coli): > 50 µM
MIC [27]: > 50 µM
MIC [31]: ≥ 50 µM
MIC (Salmonella sp.): ≥ 50 µM
MIC [17]: > 50 µM
MIC [28]: > 50 µM
MIC (Yersinia enterocolitica): ≥ 50 µM

Continued, in another order:

MIC [1]: ≥ 51.9 µM
MIC [2]: 3.24 µM (≈ 4 µg/mL)
MIC [3]: 25.9 µM (≈ 32 µg/mL)
MIC [4]: 6.49 µM (≈ 7.99 µg/mL)
MIC (Staphylococcus aureus): 6.49 µM (≈ 7.99 µg/mL)
SMILES: NCCCC[C@H](NC(=O)[C@H](Cc1c[nH]c2ccccc12)NC(=O)[C@H](Cc1c[nH]c2ccccc12)NC(=O)[C@H](CCCN=C(N)N)NC(=O)[C@@H](N)Cc1c[nH]c2ccccc12)C(=O)N[C@@H](Cc1c[nH]c2ccccc12)C(=O)N[C@@H](Cc1c[nH]c2ccccc12)C(N)=O [WRWWKWW]

MIC [19]: ≥ 36 µM
MIC [4]: 36 µM (≈ 64 µg/mL)
MIC [17]: 36 µM (≈ 64 µg/mL)
MIC [20]: ≥ 36 µM
SMILES: CC[C@H](C)[C@H](NC(=O)[C@H](CCCN=C(N)N)NC(=O)[C@H](CCSC)NC(=O)[C@H](C)NC(=O)[C@H](CCCN=C(N)N)NC(=O)CNC(=O)[C@H](C)NC(=O)[C@@H](NC(=O)[C@@H](N)CO)C(C)C)C(=O)NCC(=O)N[C@@H](CC(C)C)C(=O)N[C@@H](CCCN=C(N)N)C(=O)N[C@@H](Cc1ccccc1)C(=O)N[C@H](C(=O)N[C@@H](CC(C)C)C(=O)N[C@@H](CCSC)C(=O)O)C(C)C [SVAGRAMRIGLRFVLM]

MIC (Escherichia coli UB1005): 2 µM (≈ 3.55 µg/mL)
MIC [21]: ≥ 64 µM
MIC [22]: ≥ 64 µM
MIC [23]: ≥ 64 µM
MIC [24]: ≥ 64 µM
MIC [25]: ≥ 64 µM
MIC [27]: 4 µM (≈ 7.1 µg/mL)
MIC [28]: 4 µM (≈ 7.1 µg/mL)
MIC [29]: 2 µM (≈ 3.55 µg/mL)
SMILES: C[C@@H](O)[C@H](NC(=O)[C@H](Cc1c[nH]c2ccccc12)NC(=O)[C@H](Cc1c[nH]c2ccccc12)NC(=O)[C@H](Cc1c[nH]c2ccccc12)NC(=O)[C@@H](NC(=O)[C@H](Cc1c[nH]c2ccccc12)NC(=O)[C@H](CCCN=C(N)N)NC(=O)[C@@H](N)CCCN=C(N)N)[C@@H](C)O)C(=O)N[C@@H](Cc1c[nH]c2ccccc12)C(=O)N[C@@H](CCCN=C(N)N)C(=O)N[C@@H](CCCN=C(N)N)C(N)=O [RRWTWWWTWRR]
MIC [26]: ≥ 64 µM

MIC [1]: ≥ 47 µM
MIC [2]: 2.94 µM (≈ 4 µg/mL)
MIC [3]: 23.5 µM (≈ 32 µg/mL)
MIC [4]: 5.88 µM (≈ 7.99 µg/mL)
SMILES: NCCCC[C@H](NC(=O)[C@H](Cc1c[nH]c2ccccc12)NC(=O)[C@H](Cc1c[nH]c2ccccc12)NC(=O)[C@H](CCCCN)NC(=O)[C@H](Cc1c[nH]c2ccccc12)NC(=O)[C@H](Cc1c[nH]c2ccccc12)NC(=O)[C@H](CCCN=C(N)N)NC(=O)[C@@H](N)Cc1c[nH]c2ccccc12)C(N)=O [WRWWKWWK]

MIC (Escherichia coli W3110): 1 µM (≈ 2.26 µg/mL)
MIC [30]: ≥ 64 µM
SMILES: CC[C@H](C)[C@H](NC(=O)[C@H](CCCCN)NC(=O)[C@H](CCCCN)NC(=O)[C@H](Cc1ccc(O)cc1)NC(=O)[C@H](CCCCN)NC(=O)[C@H](CC(C)C)NC(=O)[C@H](CC(C)C)NC(=O)[C@H](CCCCN)NC(=O)[C@H](CC(C)C)NC(=O)CNC(=O)[C@H](Cc1c[nH]c2ccccc12)NC(=O)[C@H](CS)NC(=O)[C@H](C)NC(=O)[C@H](Cc1c[nH]c2ccccc12)NC(=O)[C@H](CCCN=C(N)N)NC(=O)[C@@H](N)Cc1c[nH]c2ccccc12)C(=O)N[C@@H](Cc1ccc(O)cc1)C(=O)O [WRWACWGLKLLKYKKIY]

From DBAASP
